Measurements taken from a melting point compilation (Tetko et al.; mined from patent text by program, amines drawn as free bases though some values may be those of a salt).

Row | melting point [°C] | SMILES
1 | 90 | C=C[C@H](C)[C@@](N)(C(N)=O)c1ccccc1 (relative stereo)
2 | 220 to 222 | NC(=O)c1ccc2c(c1)C1(COc3cc4c(cc31)OCCO4)C(=O)N2Cc1ccccn1 (stereo unspecified)
3 | 223 to 226 | CCCc1cnc2c(NC(=O)c3c(Cl)cccc3Cl)cccc2c1NNC(C)=O
4 | 120 to 121 | Clc1ccc(-c2nc(-n3ccnc3)oc2CCC2=NCCO2)cc1
5 | 223 to 225 | C=CCNc1cc(C(=O)O)cc(S(N)(=O)=O)c1Oc1ccccc1
6 | 110 to 112 | CCOC(=O)C1=C(NC(=O)Nc2ccc(Cl)c(C(=O)OCC)c2)CCC1
7 | 217 | N#Cc1cc(F)cc(-c2cc(Br)c3c(c2)C2(CCCCC2)C(=O)N3)c1
8 | 199 to 200 | Nc1cc(C(=O)O)cc(OCc2ccc(Cl)cc2)c1Cc1ccccc1
9 | 79 | CCCCN(CCCC)CCCNc1ccccc1[N+](=O)[O-]
10 | 111 to 113 | O=C(Nc1ccccc1)N(Cc1ccc(Cl)cc1)C1CC2CCC1C2 (stereo unspecified)
11 | 200 to 205 | CC(NC(=O)Cc1cc(F)cc(F)c1)C(=O)NC1(c2ccccc2)NC(=O)Cc2ccccc21 (stereo unspecified)
12 | 88.5 to 90 | CCCCNC(=O)[C@@H](C[C@H](O)[C@@H](N)CC1CCCCC1)C(C)C
13 | 155 to 156 | COC(=O)N(C(=O)CC(O)(Cn1cncn1)c1ccc(Cl)cc1Cl)C(=O)OC (stereo unspecified)
14 | 253 to 254 | O=C(O)Cc1cc2c3ccccc3[nH]c(=O)n2n1
15 | 58 to 59 | COc1cc(C(OC)OC)cc([N+](=O)[O-])c1O
16 | 119 | CCO[C@@H](Cc1ccc(-c2nc([N+](=O)[O-])nn2C)cc1)C(=O)OC
17 | 230 | CNc1ccc(NC(=O)c2ccc(-c3[nH]nc4c3C(=O)c3c(NC(=O)NN5CCOCC5)cccc3-4)s2)cc1
18 | 170 to 172 | CCc1nc2c(N)nc3ccccc3c2s1
19 | 138 to 143 | Oc1ccc2c(-c3ccccc3)coc2c1
20 | 200 | CCC(=O)NN=C(Nc1ccc([N+](=O)[O-])cc1)c1ccc(OC)cc1
21 | 98 to 100 | COC(=O)C(C#N)c1c[nH]c2ccc(OC)cc12 (stereo unspecified)
22 | 220 to 225 | CC(C(=O)O)S(=O)(=O)c1ccc2c(-c3ccccc3F)noc2c1Cl (stereo unspecified)
23 | 66 to 68 | COc1cc(N)c(Cl)cc1C(=O)NCC1CCN(CCCCCNCc2ccc(F)cc2)CC1
24 | 150 to 151 | NC(=S)c1ncccc1O

Row | melting point [°C] | SMILES
25 | 181 to 184 | Cc1ccc(NC(=O)C(C)(C)C)c(-c2cccc(-c3cc(C)ccc3NC(=O)C(C)(C)C)n2)c1
26 | 105 | CCSc1cc(O)c(C#N)s1
27 | 171 to 172 | CCn1c(=O)c2c(nc(/C=C/c3ccc(C)cc3)n2C)n(CC)c1=O
28 | 151 to 153 | COc1ccccc1N1CCN(CCOc2ccc(-c3cn4ccccc4n3)cc2)CC1
29 | 180 to 183 | Cn1nc(-c2cccc(C(F)(F)F)c2)c(Cl)c1C(=O)O
30 | 208 to 210 | O=C(O)c1ccc(/C=C/c2ccccc2-c2cccs2)cc1
31 | 251 to 254 | CC(=O)Nc1cccc(C2=CCNc3c(C#N)cnn32)c1
32 | 170 to 172 | N#Cc1cccc(C=CC(=O)c2ccc(F)cc2)c1
33 | 237 to 239 | CCCCOc1ccc(/C=C/c2nc3c([nH]2)c(=O)n(CCC)c(=O)n3CCC)cc1
34 | 197 to 199 | NC(=O)C1(/C=C2\CN3C(=O)CC3O2)C=CC=CC1 (stereo unspecified)
35 | 129 | COc1ccc(S(=O)(=O)N(CC(N)=O)c2ccc(Cl)cc2C(O)c2ccccc2C(F)(F)F)cc1OC (stereo unspecified)
36 | 118 to 119 | CC(=O)Oc1ccc2ncc3c(c2c1)CCCC3
37 | 169 to 170 | CCCOc1ccc2c(c1)C(c1ccccc1OCC(=O)O)C(C(=O)O)C2c1ccc2c(c1)OCO2 (stereo unspecified)
38 | 185 to 187 | COc1cc2cnn(CCCCl)c(=O)c2cc1OC
39 | 109 to 110 | CON=C(C#N)C(=O)Nc1ccc(OC(F)C(F)(F)F)cc1 (stereo unspecified)
40 | 226 | CC(=O)Nc1ccc([N+](=O)[O-])s1
41 | 159 to 160 | CC(C)(C)OC(=O)CS(=O)(=O)c1cccc(-c2nc(=O)c3ccccc3s2)n1
42 | 208 to 209 | CC(C)(O)[C@H]1CC[C@H](Cc2cn(-c3ccc(F)cc3)c3ncccc3c2=O)CC1
43 | 164 | CC(=O)C(C)(C#N)c1ccc2c(c1)Cc1cccnc1O2 (stereo unspecified)
44 | > 260 | O=C(NCCc1c2n(c3ccc(O)nc13)CCCc1ccccc1-2)c1ccco1
45 | 260 to 261 | O=c1c2c(n(-c3ccccc3)c3ncccc13)SCC2
46 | 157 to 159 | CCOC(=O)C1=C(C)NC(N)=C(C(=O)OCC)C1c1cccc(Cl)c1 (stereo unspecified)
47 | > 240 | O=C(Nc1ccc(C(=O)O)cc1)NN1CC=CCC1
48 | > 300 | CC(C)(C)c1cc(C2NC(=O)NC2c2ccccc2)cc(C(C)(C)C)c1O (stereo unspecified)

Row | melting point [°C] | SMILES
49 | 155 | Cc1ccc2ccc(N3C(=O)c4ccccc4C3CC(=O)CCC(C)C)nc2n1 (stereo unspecified)
50 | 160 to 162 | O=S(=O)(Nc1ccccc1)c1ccc(NC(=S)Nc2ccccc2)cc1
51 | 218 | CN1CC=C(C2=C(C#N)C(c3cccc4nonc34)c3c[nH]nc3N2)CC1 (stereo unspecified)
52 | 83 to 85 | COC(=O)c1sc(C#N)cc1[N+](=O)[O-]
53 | 183 to 185 | CCCCc1ncc(/C=C(\Cc2cccs2)C(N)=O)n1Cc1ccccc1[N+](=O)[O-]
54 | 170 to 172 | CCC1c2[nH]c3ccccc3c2CC(CO)N1C(=S)SC (stereo unspecified)
55 | 108 to 109 | CCCC(CCC)NC(=O)c1ccc2oc(CCl)nc2c1
56 | 133 to 135 | Cc1cc(-c2ccc(S(C)(=O)=O)cc2)n(-c2ccc(-c3ccco3)cc2)c1
57 | 178 to 179 | Cc1nc2nc(C(=O)NO)cc(S)n2n1
58 | 145 to 146 | CCC(C)(C)c1ccc(OCCCCNC(=O)c2[nH]c3ccc(OC)cc3c2N)c(C(C)(C)CC)c1
59 | 92 to 93 | COc1cc(CO)c(-n2cccc2)cc1OC
60 | 178 | CS(=O)(=O)Nc1ccc(N2CCN(Cc3ccc(-c4ccccc4)o3)CC2)cc1
61 | 116 to 121 | CN(Cc1ccc(NC(=O)C2=Cc3cc(Br)ccc3CCC2)cc1)C1CCOCC1
62 | > 200 | O=C1N(Cc2ccccn2)c2cccc(-c3cncnc3)c2C12COc1cc3c(cc12)CCO3 (stereo unspecified)
63 | 134 to 135 | CON(C)C(=O)Cc1cc(Oc2ccc(C(F)(F)F)cc2Cl)ccc1[N+](=O)[O-]
64 | 98 to 100 | CC(C)C[C@H](N)C(=O)N[C@@H](CC1CCCCC1)[C@@H](O)c1ccccn1
65 | 90.5 to 92 | CCc1ccc(CCOc2ccc(NC(=O)N(C)OC)cc2)nc1
66 | 183 to 185 | O=S(c1c(C(F)(F)F)[nH]c2ccccc12)C(F)(F)F (stereo unspecified)
67 | 123 to 125 | O=C1CCC(N2Cc3c(OCc4ccc(CN5CCc6cc(F)ccc6C5)cc4)cccc3C2=O)C(=O)N1 (stereo unspecified)
68 | 168 to 170 | Nc1nc(-c2ccc([N+](=O)[O-])o2)ns1
69 | 164 to 165 | OCC(O)CNc1ncnc2c1ncn2C1OC(CO)C(O)C1O (stereo unspecified)
70 | 165 to 167 | CS(=O)(=O)c1ccc(-c2sc(-c3ccc(F)c(Cl)c3)nc2-c2ccc(F)cc2)cc1
71 | 187 to 189 | N#CCC(=O)c1nn(-c2ccccc2)c2c1COc1c(CN3CCOCC3)cc(F)cc1-2
72 | 90 to 93 | OC(CNC1CCc2ccccc2C1)COc1cccc2c1CCCC2 (stereo unspecified)

Row | melting point [°C] | SMILES
73 | 138 to 140 | O=C(O)/C(=N/O)c1ccc(OCCOc2ccc3ccccc3c2)s1
74 | 220 | Cn1nnc2cc(OC3SCC(O)C(O)C3O)ccc21 (stereo unspecified)
75 | 44 to 45 | COc1ccc2cc(C(C)C(=O)OCC(=O)OCCO[N+](=O)[O-])ccc2c1 (stereo unspecified)
76 | 87 | CNc1nc(CO)ccc1C
77 | 137 to 139 | Cc1cnc(C2CCCCC2)n2c1c(CCBr)c1ccccc12
78 | 215 to 219 | Nc1cc(-n2cc(C(=O)O)c(=O)c3cc(F)c(NCCO)c(Cl)c32)c(F)cc1F
79 | 93 to 94.5 | CC(c1ccc(O)cc1)(c1ccc(O)cc1)C(F)(F)F
80 | 204 to 206 | O=C1C(=Cn2ccnc2)C(c2ccccc2)c2ccccc21 (stereo unspecified)
81 | 200 | Oc1c(F)cc(Cn2c(S)nc3ccccc32)cc1F
82 | 191 to 192 | N#CC(C#N)=CN(N=C(C#N)C#N)c1ccc(Br)cc1
83 | 284 | CCn1c(=O)c2[nH]c(/C=C/c3cc(OC)c(OC)cc3[N+](=O)[O-])nc2n(CC)c1=O
84 | 123 to 126 | COC(=O)c1cc(C(C)Br)cnc1C1=NC(C)(C(C)C)C(=O)N1 (stereo unspecified)
85 | 132 to 134 | O=C(O)c1cc(Cl)cc2c1O[C@@H]1CCCC[C@H]21 (relative stereo)
86 | 193 to 195 | Cc1ccc2c(CC(=O)O)c(C(=O)c3ccc(Cl)cc3)[nH]c2c1
87 | 155 to 156 | O=C(O)/C=C/c1ccc(C(=C2CCCCCC2)c2ccc(O)c(Cl)c2)cc1
88 | 136 to 139 | CC(C)(C)OC(=O)Nc1ccc(OCc2ccccc2)c(C(=O)O)c1
89 | 228 | Cn1cc(C[C@H]2NC(=O)[C@@H](CCC(=O)O)NC2=O)c2ccccc21
90 | 132 to 134 | CCC(COC)Nc1nc(C)nc2c1nnn2-c1ccc(C(C)C)cc1Br (stereo unspecified)
91 | 200 | O=c1cccc(-c2ccccc2)[nH]1
92 | 128 to 130 | CC(=O)Oc1ccc(C(=O)Oc2ccc(OC(=O)c3ccc(OC(C)=O)cc3)c(C)c2)cc1
93 | 181 to 182 | CC(NC(Nc1cc(C(F)(F)F)cc(C(F)(F)F)c1)=C(C#N)S(C)(=O)=O)C(C)(C)C (stereo unspecified)
94 | 182 | Cc1nc(-c2cccc(Cl)c2)c2cc(C(=O)c3ccc(Cl)cc3)ccc2n1
95 | 58 | C=CCCCCCCCCOC(=O)C=Cc1ccccc1O
96 | 51 to 53 | C(#Cc1cccc2ccccc12)c1ccccc1

Row | SMILES | melting point [°C]
97 | CC1(C)CCC(C)(C)c2cc(-c3cc(-c4ccc(C=O)cc4)ccc3-c3ccccc3)ccc21 | 120 to 122
98 | N#Cc1nn(-c2c(Cl)cc(C(F)(F)F)cc2Cl)c(C(=O)C(F)F)c1Cl | 124 to 125
99 | CC(=O)N1CCc2cc(C[C@@H](C)NCCOc3ccccc3OCC(F)(F)F)cc(C(N)=O)c21 | 144 to 146
100 | O=C(Nc1nccs1)C(=O)c1cn(Cc2ccc(F)cc2)c2ccccc12 | 233 to 237
101 | CN1CCN(CC(=O)C2CC3c4cccc5[nH]cc(c45)CC3N(C)C2)CC1 (stereo unspecified) | 198 to 202
